Test results as given in patent publication US20070128217A1 (priority 2003, published 2007).

Columns and labels:
[1] = test system: antibodies in sera from SARS patients (sera 1a, 1b, 2, 6, 37, 62, London, SARS-yellow, SARS-green); type: binding, human; set-up: Binding of serum 6 to linear peptides of protein X1 of SARS-CoV Urbani / Binding of serum 37 to linear peptides of protein X1 of SARS-CoV Urbani / Binding of serum 6 to looped/cyclic peptide (PEPSCAN-ELISA) / Binding of serum 37 to looped/cyclic peptide (PEPSCAN-ELISA) / Binding of serum 37 to looped/cyclic peptides of protein X1 of SARS-CoV Urbani / Binding of serum 6 to linear peptides of protein X2 / Binding of serum 37 to linear peptides of protein X2 / Binding of serum 37 to looped/cyclic peptides of protein X2 of SARS-CoV Urbani / Binding of serum 6 to linear peptides of protein M of SARS-CoV Urbani / Binding of serum 37 to linear peptides of protein M of SARS-CoV Urbani / Binding of serum 6 to looped/cyclic peptides of protein M of SARS-CoV Urbani / Binding of serum 37 to looped/cyclic peptides of protein M of SARS-CoV Urbani / Binding of serum 6 to linear peptides of protein X3 of SARS-CoV Urbani / Binding of serum 37 to linear peptides of protein X3 of SARS-CoV Urbani / Binding of serum 37 to looped/cyclic peptides of protein X3 of SARS-CoV Urbani / Binding of serum 6 to linear peptides of protein X4 of SARS-CoV Urbani / Binding of serum 37 to linear peptides of protein X4 of SARS-CoV Urbani / Binding of serum 37 to looped/cyclic peptides of protein X4 of SARS-CoV Urbani / Binding of serum 6 to linear peptides of protein X5 of SARS-CoV Urbani / Binding of serum 37 to linear peptides of protein X5 of SARS-CoV Urbani / Binding of serum 37 to looped/cyclic peptides of protein X5 of SARS-CoV Urbani / Binding of serum 6 to linear peptides of protein N of SARS-CoV Urbani / Binding of serum 37 to linear peptides of protein N of SARS-CoV Urbani / Binding of serum 6 to linear peptide (PEPSCAN-ELISA) / Binding of serum 1a to looped/cyclic peptides of protein N of SARS-CoV Urbani / Binding of serum 1b to looped/cyclic peptides of protein N of SARS-CoV Urbani / Binding of serum 2 to looped/cyclic peptides of protein N of SARS-CoV Urbani / Binding of serum 6 to looped/cyclic peptides of protein N of SARS-CoV Urbani / Binding of serum 37 to looped/cyclic peptides of protein N of SARS-CoV Urbani / Binding of serum 62 to looped/cyclic peptides of protein N of SARS-CoV Urbani / Binding of serum London to looped/cyclic peptides of protein N of SARS-CoV Urbani / Binding of serum SARS-green to looped/cyclic peptides of protein N of SARS-CoV Urbani: unit not given here
[2] = test system: rabbit serum obtained by immunizing a rabbit with the SARS-CoV strain Frankfurt 1; type: binding; set-up: Binding of a rabbit serum to linear peptides / Binding of a rabbit serum to looped peptides / Rabbit serum linear peptides / Rabbit serum looped peptides / Binding of a rabbit serum to linear peptides of protein N of SARS-CoV Urbani (Rabbit serum linear peptides) / Binding of a rabbit serum to looped/cyclic peptides of protein N of SARS-CoV Urbani (Rabbit serum looped peptides): unit not given here
[3] = test system: control sera (pooled serum of ten healthy LUMC hospital workers; commercial negative donor pooled serum from the Dutch bloodbank); type: binding, human; set-up: Binding of Control serum LUMC to linear peptides / Binding of Control serum Blood-bank to linear peptides / Binding of Control serum LUMC to looped peptides / Binding of Control Serum Blood-Bank to Looped peptides / Binding of Control serum LUMC to linear peptides of the protein M of SARS-CoV Urbani / Binding of Control serum Blood-bank to linear peptides of the protein M of SARS-CoV Urbani / Binding of Control serum LUMC to looped peptides of the protein M of SARS-CoV Urbani / Binding of Control Serum Blood-Bank to Looped peptides of the protein M of SARS-CoV Urbani: unit not given here

IPLQASLPFGWLVIG
Binding of serum 1a to linear peptides of protein X1 of SARS-CoV Urbani [1]: 0.8 | Binding of serum 1a to looped/cyclic peptide (PEPSCAN-ELISA) [1]: 0.6 | Binding of serum 1b to linear peptides of protein X1 of SARS-CoV Urbani [1]: 0.6 | Binding of serum 1b to looped/cyclic peptide (PEPSCAN-ELISA) [1]: 0.4 | Binding of serum 2 to linear peptides of protein X1 of SARS-CoV Urbani [1]: 0.6 | Binding of serum 2 to looped/cyclic peptide (PEPSCAN-ELISA) [1]: 0.4 | Binding of serum 6 to linear peptides of protein X1 of SARS-CoV Urbani [1]: 0.5 | Binding of serum 6 to looped/cyclic peptide (PEPSCAN-ELISA) [1]: 0.3 | Binding of serum 37 to linear peptides of protein X1 of SARS-CoV Urbani [1]: 0.7 | Binding of serum 37 to looped/cyclic peptide (PEPSCAN-ELISA) [1]: 0.5 | Binding of serum 62 to linear peptides of protein X1 of SARS-CoV Urbani [1]: 0.6 | Binding of serum 62 to looped/cyclic peptide (PEPSCAN-ELISA) [1]: 0.6 | Binding of serum London to linear peptides of protein X1 of SARS-CoV Urbani [1]: 0.3 | Binding of serum London to looped/cyclic peptide (PEPSCAN-ELISA) [1]: 0.2 | Binding of serum SARS-green to linear peptides of protein X1 of SARS-CoV Urbani [1]: 0.4 | Binding of serum SARS-green to looped/cyclic peptide (PEPSCAN-ELISA) [1]: 0.3 | Binding of serum SARS-yellow to linear peptides of protein X1 of SARS-CoV Urbani [1]: 0.5 | Binding of serum SARS-yellow to looped/cyclic peptide (PEPSCAN-ELISA) [1]: 0.3 | Binding of a rabbit serum to linear peptides [2]: 0.1 | Binding of a rabbit serum to looped peptides [2]: 0.5 | Binding of Control Serum Blood-Bank to Looped peptides [3]: 0.6 | Binding of Control serum Blood-bank to linear peptides [3]: 0.7 | Binding of Control serum LUMC to linear peptides [3]: 0.8 | Binding of Control serum LUMC to looped peptides [3]: 0.6

LCALGKVLPFHRWHT
Binding of serum 1a to linear peptides of protein X5 of SARS-CoV Urbani [1]: 0.7 | Binding of serum 1a to looped/cyclic peptides of protein X5 of SARS-CoV Urbani [1]: 0.4 | Binding of serum 1b to linear peptides of protein X5 of SARS-CoV Urbani [1]: 0.6 | Binding of serum 1b to looped/cyclic peptides of protein X5 of SARS-CoV Urbani [1]: 0.2 | Binding of serum 2 to linear peptides of protein X5 of SARS-CoV Urbani [1]: 0.7 | Binding of serum 2 to looped/cyclic peptides of protein X5 of SARS-CoV Urbani [1]: 0.5 | Binding of serum 6 to linear peptides of protein X5 of SARS-CoV Urbani [1]: 0.5 | Binding of serum 6 to looped/cyclic peptides of protein X5 of SARS-CoV Urbani [1]: 0.4 | Binding of serum 37 to linear peptides of protein X5 of SARS-CoV Urbani [1]: 0.7 | Binding of serum 37 to looped/cyclic peptides of protein X5 of SARS-CoV Urbani [1]: 0.4 | Binding of serum 62 to linear peptides of protein X5 of SARS-CoV Urbani [1]: 0.8 | Binding of serum 62 to looped/cyclic peptides of protein X5 of SARS-CoV Urbani [1]: 0.6 | Binding of serum London to linear peptides of protein X5 of SARS-CoV Urbani [1]: 0.9 | Binding of serum London to looped/cyclic peptides of protein X5 of SARS-CoV Urbani [1]: 0.2 | Binding of serum SARS-green to linear peptides of protein X5 of SARS-CoV Urbani [1]: 0.6 | Binding of serum SARS-green to looped/cyclic peptides of protein X5 of SARS-CoV Urbani [1]: 0.4 | Binding of serum SARS-yellow to linear peptides of protein X5 of SARS-CoV Urbani [1]: 0.2 | Binding of serum SARS-yellow to looped/cyclic peptides of protein X5 of SARS-CoV Urbani [1]: 0.4 | Rabbit serum linear peptides [2]: 0.7 | Rabbit serum looped peptides [2]: 0.7 | Binding of Control Serum Blood-Bank to Looped peptides [3]: 0.4 | Binding of Control serum Blood-bank to linear peptides [3]: 0.7 | Binding of Control serum LUMC to linear peptides [3]: 0.5 | Binding of Control serum LUMC to looped peptides [3]: 0.6

LHSSSLTSLLKTHRM
Binding of serum 1a to linear peptides of protein X2 [1]: 0.6 | Binding of serum 1a to looped/cyclic peptides of protein X2 of SARS-CoV Urbani [1]: 0.4 | Binding of serum 1b to linear peptides of protein X2 [1]: 0.5 | Binding of serum 1b to looped/cyclic peptides of protein X2 of SARS-CoV Urbani [1]: 0.4 | Binding of serum 2 to linear peptides of protein X2 [1]: 0.4 | Binding of serum 2 to looped/cyclic peptides of protein X2 of SARS-CoV Urbani [1]: 0.3 | Binding of serum 6 to linear peptides of protein X2 [1]: 0.5 | Binding of serum 6 to looped/cyclic peptides of protein X2 of SARS-CoV Urbani [1]: 0.2 | Binding of serum 37 to linear peptides of protein X2 [1]: 0.5 | Binding of serum 37 to looped/cyclic peptides of protein X2 of SARS-CoV Urbani [1]: 0.3 | Binding of serum 62 to linear peptides of protein X2 [1]: 0.5 | Binding of serum 62 to looped/cyclic peptides of protein X2 of SARS-CoV Urbani [1]: 0.4 | Binding of serum London to linear peptides of protein X2 [1]: 0.6 | Binding of serum London to looped/cyclic peptides of protein X2 of SARS-CoV Urbani [1]: 0.2 | Binding of serum SARS-green to linear peptides of protein X2 [1]: 0.6 | Binding of serum SARS-green to looped/cyclic peptides of protein X2 of SARS-CoV Urbani [1]: 0.3 | Binding of serum SARS-yellow to linear peptides of protein X2 [1]: 0.6 | Binding of serum SARS-yellow to looped/cyclic peptides of protein X2 of SARS-CoV Urbani [1]: 0.3 | Binding of a rabbit serum to linear peptides [2]: 0.2 | Binding of a rabbit serum to looped peptides [2]: 0.4 | Binding of Control Serum Blood-Bank to Looped peptides [3]: 0.4 | Binding of Control serum Blood-bank to linear peptides [3]: 0.7 | Binding of Control serum LUMC to linear peptides [3]: 0.4 | Binding of Control serum LUMC to looped peptides [3]: 0.4
